Assay results taken from PubChem BioAssay (NCI).
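Method: 48-hour compound exposure of cells in 96-well plates, five concentrations, linear interpolation of endpoints. Abbreviation: GI50, concentration required for 50% inhibition of growth. The concentration for full growth arrest is given as TGI.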

Legend:
Test in all cases: inhibition of tumour cell growth, NCI panel, 48 h
CCRF-CEM leukemia = tested on: CCRF-CEM leukemia
SW-620 colon = tested on: SW-620 colon
DU-145 prostate = tested on: DU-145 prostate
A549 NSCLC = tested on: A549 NSCLC
TK-10 renal = tested on: TK-10 renal
COLO 205 colon = tested on: COLO 205 colon
K-562 leukemia = tested on: K-562 leukemia
M14 melanoma = tested on: M14 melanoma
HCC-2998 colon = tested on: HCC-2998 colon
ACHN renal = tested on: ACHN renal
EKVX NSCLC = tested on: EKVX NSCLC
NCI-H522 lung = tested on: NCI-H522 lung
SK-MEL-2 melanoma = tested on: SK-MEL-2 melanoma
RXF 393 renal = tested on: RXF 393 renal
SNB-19 CNS = tested on: SNB-19 CNS
MDA-MB-231 breast = tested on: MDA-MB-231 breast
UACC-62 melanoma = tested on: UACC-62 melanoma
OVCAR-5 ovarian = tested on: OVCAR-5 ovarian
A498 renal = tested on: A498 renal
NCI-H460 lung = tested on: NCI-H460 lung
SK-MEL-28 melanoma = tested on: SK-MEL-28 melanoma
MOLT-4 leukemia = tested on: MOLT-4 leukemia
MDA-MB-468 breast = tested on: MDA-MB-468 breast
SF-268 CNS = tested on: SF-268 CNS
HL-60(TB) leukemia = tested on: HL-60(TB) leukemia
SR leukemia = tested on: SR leukemia
SK-OV-3 ovarian = tested on: SK-OV-3 ovarian
HS 578T breast = tested on: HS 578T breast
LOX IMVI melanoma = tested on: LOX IMVI melanoma
MCF7 breast = tested on: MCF7 breast
HOP-62 NSCLC = tested on: HOP-62 NSCLC
HCT-116 colon = tested on: HCT-116 colon
CAKI-1 renal = tested on: CAKI-1 renal
NCI-H226 lung = tested on: NCI-H226 lung
OVCAR-8 ovarian = tested on: OVCAR-8 ovarian
SN12C renal = tested on: SN12C renal
PC-3 prostate = tested on: PC-3 prostate
NCI-H23 lung = tested on: NCI-H23 lung
IGROV1 ovarian = tested on: IGROV1 ovarian
SF-295 CNS = tested on: SF-295 CNS
OVCAR-4 ovarian = tested on: OVCAR-4 ovarian
HCT-15 colon = tested on: HCT-15 colon
MDA-MB-435 = tested on: MDA-MB-435
SK-MEL-5 melanoma = tested on: SK-MEL-5 melanoma
UO-31 renal = tested on: UO-31 renal
NCI/ADR-RES ovarian = tested on: NCI/ADR-RES ovarian
OVCAR-3 ovarian = tested on: OVCAR-3 ovarian
KM12 colon = tested on: KM12 colon
RPMI-8226 leukemia = tested on: RPMI-8226 leukemia
BT-549 breast = tested on: BT-549 breast
T-47D breast = tested on: T-47D breast
786-0 renal = tested on: 786-0 renal
U251 CNS = tested on: U251 CNS
HOP-92 NSCLC = tested on: HOP-92 NSCLC
HT29 colon = tested on: HT29 colon
UACC-257 melanoma = tested on: UACC-257 melanoma
SF-539 CNS = tested on: SF-539 CNS
MALME-3M melanoma = tested on: MALME-3M melanoma
SNB-75 CNS = tested on: SNB-75 CNS

Which results are given for `O=C(COc1ccc(NC(=O)Nc2ccc(Cl)c(Cl)c2)cc1)N=Nc1c(O)[nH]c2ccc(Cl)cc12`?
GI50 (CCRF-CEM leukemia): 2.27 µM; TGI (CCRF-CEM leukemia): 5.54 µM; GI50 (SW-620 colon): 1.79 µM; TGI (SW-620 colon): 3.59 µM; GI50 (DU-145 prostate): 2.96 µM; TGI (DU-145 prostate): 8.81 µM; GI50 (A549 NSCLC): 2.61 µM; TGI (A549 NSCLC): 7.01 µM; GI50 (TK-10 renal): 2.86 µM; TGI (TK-10 renal): 9.89 µM; GI50 (COLO 205 colon): 1.76 µM; TGI (COLO 205 colon): 3.35 µM; GI50 (K-562 leukemia): 2.77 µM; TGI (K-562 leukemia): 7.1 µM; GI50 (M14 melanoma): 1.81 µM; TGI (M14 melanoma): 3.71 µM; GI50 (HCC-2998 colon): 2.58 µM; TGI (HCC-2998 colon): 7.1 µM; GI50 (ACHN renal): 3.23 µM; TGI (ACHN renal): 11.4 µM; GI50 (EKVX NSCLC): 2.65 µM; TGI (EKVX NSCLC): 9.28 µM; GI50 (NCI-H522 lung): 1.74 µM; TGI (NCI-H522 lung): 3.57 µM; GI50 (SK-MEL-2 melanoma): 2.07 µM; TGI (SK-MEL-2 melanoma): 4.83 µM; GI50 (RXF 393 renal): 1.62 µM; TGI (RXF 393 renal): 3.13 µM; GI50 (SNB-19 CNS): 2.66 µM; TGI (SNB-19 CNS): 7.49 µM; GI50 (MDA-MB-231 breast): 1.93 µM; TGI (MDA-MB-231 breast): 3.57 µM; GI50 (UACC-62 melanoma): 1.98 µM; TGI (UACC-62 melanoma): 4.45 µM; GI50 (OVCAR-5 ovarian): 2.11 µM; TGI (OVCAR-5 ovarian): 5.39 µM; GI50 (A498 renal): 2.06 µM; TGI (A498 renal): 5.28 µM; GI50 (NCI-H460 lung): 1.92 µM; TGI (NCI-H460 lung): 4.07 µM; GI50 (SK-MEL-28 melanoma): 1.89 µM; TGI (SK-MEL-28 melanoma): 3.86 µM; GI50 (MOLT-4 leukemia): 1.84 µM; TGI (MOLT-4 leukemia): 4.5 µM; GI50 (MDA-MB-468 breast): 1.84 µM; TGI (MDA-MB-468 breast): 3.54 µM; GI50 (SF-268 CNS): 2.23 µM; TGI (SF-268 CNS): 5.18 µM; GI50 (HL-60(TB) leukemia): 2.05 µM; TGI (HL-60(TB) leukemia): 5.31 µM; GI50 (SR leukemia): 2.18 µM; TGI (SR leukemia): 9.97 µM; GI50 (SK-OV-3 ovarian): 2.19 µM; TGI (SK-OV-3 ovarian): 4.98 µM; GI50 (HS 578T breast): 2.33 µM; TGI (HS 578T breast): 6.36 µM; GI50 (LOX IMVI melanoma): 1.73 µM; TGI (LOX IMVI melanoma): 3.23 µM; GI50 (MCF7 breast): 2.08 µM; TGI (MCF7 breast): 5 µM; GI50 (HOP-62 NSCLC): 1.78 µM; TGI (HOP-62 NSCLC): 3.65 µM; GI50 (HCT-116 colon): 1.85 µM; TGI (HCT-116 colon): 3.47 µM; GI50 (CAKI-1 renal): 2.21 µM; TGI (CAKI-1 renal): 4.89 µM; GI50 (NCI-H226 lung): 2.06 µM; TGI (NCI-H226 lung): 4.59 µM; GI50 (OVCAR-8 ovarian): 2.3 µM; TGI (OVCAR-8 ovarian): 5.36 µM; GI50 (SN12C renal): 1.93 µM; TGI (SN12C renal): 3.67 µM; GI50 (PC-3 prostate): 2.1 µM; TGI (PC-3 prostate): 5.07 µM; GI50 (NCI-H23 lung): 2.08 µM; TGI (NCI-H23 lung): 4.4 µM; GI50 (IGROV1 ovarian): 2.31 µM; TGI (IGROV1 ovarian): 5.73 µM; GI50 (SF-295 CNS): 1.81 µM; TGI (SF-295 CNS): 3.54 µM; GI50 (OVCAR-4 ovarian): 2.26 µM; TGI (OVCAR-4 ovarian): 6.15 µM; GI50 (HCT-15 colon): 7.94 µM; TGI (HCT-15 colon): > 100 µM; GI50 (MDA-MB-435): 1.8 µM; TGI (MDA-MB-435): 3.68 µM; GI50 (SK-MEL-5 melanoma): 1.72 µM; TGI (SK-MEL-5 melanoma): 3.18 µM; GI50 (UO-31 renal): 22.5 µM; TGI (UO-31 renal): > 100 µM; GI50 (NCI/ADR-RES ovarian): > 100 µM; TGI (NCI/ADR-RES ovarian): > 100 µM; GI50 (OVCAR-3 ovarian): 1.97 µM; TGI (OVCAR-3 ovarian): 4.1 µM; GI50 (KM12 colon): 1.98 µM; TGI (KM12 colon): 4.38 µM; GI50 (RPMI-8226 leukemia): 2.44 µM; TGI (RPMI-8226 leukemia): 6.2 µM; GI50 (BT-549 breast): 1.62 µM; TGI (BT-549 breast): 3.3 µM; GI50 (T-47D breast): 2.01 µM; TGI (T-47D breast): 4.76 µM; GI50 (786-0 renal): 1.78 µM; TGI (786-0 renal): 3.8 µM; GI50 (U251 CNS): 1.9 µM; TGI (U251 CNS): 3.79 µM; GI50 (HOP-92 NSCLC): 2.18 µM; TGI (HOP-92 NSCLC): 4.87 µM; GI50 (HT29 colon): 1.89 µM; TGI (HT29 colon): 3.58 µM; GI50 (UACC-257 melanoma): 2 µM; TGI (UACC-257 melanoma): 4.15 µM; GI50 (SF-539 CNS): 1.78 µM; TGI (SF-539 CNS): 3.4 µM; GI50 (MALME-3M melanoma): 1.68 µM; TGI (MALME-3M melanoma): 3.1 µM; GI50 (SNB-75 CNS): 1.58 µM; TGI (SNB-75 CNS): 3.49 µM
